According to BigSolDB 2.1:

COc1cccc(Nc2ccccc2)c1
Details | solubility (mole fraction)
in 1,2-dichloroethane, 287.65 K | 0.149
in 1,2-dichloroethane, 292.3 K | 0.182
in 1,2-dichloroethane, 297.35 K | 0.216
in 1,2-dichloroethane, 302.55 K | 0.258
in 1,2-dichloroethane, 308.65 K | 0.312
in 1,2-dichloroethane, 313.15 K | 0.355
in 1,2-dichloroethane, 318.85 K | 0.401
in 1,2-dichloroethane, 324.25 K | 0.443
in 1,2-dichloroethane, 329.55 K | 0.502
in 1,2-dichloroethane, 333.75 K | 0.545
in acetone, 287.25 K | 0.237
in acetone, 292.85 K | 0.264
in acetone, 298.95 K | 0.3
in acetone, 303.05 K | 0.327
in acetone, 308.15 K | 0.361
in acetone, 313.05 K | 0.407
in acetone, 317.55 K | 0.456
in acetone, 321.75 K | 0.513
in chloroform, 290.25 K | 0.181
in chloroform, 295.25 K | 0.218
in chloroform, 300.55 K | 0.258
in chloroform, 306.15 K | 0.308
in chloroform, 311.5 K | 0.35
in chloroform, 315.5 K | 0.386
in chloroform, 319.8 K | 0.424
in chloroform, 323.13 K | 0.456
in ethyl acetate, 287.15 K | 0.195
in ethyl acetate, 291.05 K | 0.225
in ethyl acetate, 295.55 K | 0.254
in ethyl acetate, 300.18 K | 0.283
in ethyl acetate, 306.35 K | 0.329
in ethyl acetate, 311.25 K | 0.366
in ethyl acetate, 316.25 K | 0.407
in ethyl acetate, 321.35 K | 0.442
in ethyl acetate, 326.25 K | 0.5
in ethyl acetate, 330.15 K | 0.543
in methanol, 287.25 K | 0.0134
in methanol, 291.95 K | 0.0174
in methanol, 296.65 K | 0.0214
in methanol, 301.15 K | 0.0268
in methanol, 305.35 K | 0.0339
in methanol, 311.85 K | 0.0478
in methanol, 316.25 K | 0.0579
in methanol, 321.25 K | 0.0724
in methanol, 327.15 K | 0.0972

CSc1cccc(Nc2ccccc2)c1
Details | solubility (mole fraction)
in 1,2-dichloroethane, 287.65 K | 0.189
in 1,2-dichloroethane, 292.3 K | 0.231
in 1,2-dichloroethane, 296.85 K | 0.278
in 1,2-dichloroethane, 300.95 K | 0.311
in 1,2-dichloroethane, 305.35 K | 0.36
in 1,2-dichloroethane, 310.45 K | 0.415
in 1,2-dichloroethane, 315.15 K | 0.466
in 1,2-dichloroethane, 319.75 K | 0.515
in 1,2-dichloroethane, 324.25 K | 0.562
in 1,2-dichloroethane, 329.55 K | 0.615
in 1,2-dichloroethane, 333.75 K | 0.654
in acetone, 287.45 K | 0.254
in acetone, 292.55 K | 0.306
in acetone, 296.15 K | 0.343
in acetone, 300.35 K | 0.381
in acetone, 305.45 K | 0.438
in acetone, 310.65 K | 0.5
in acetone, 315.15 K | 0.551
in acetone, 321.75 K | 0.643
in chloroform, 288.85 K | 0.226
in chloroform, 293.35 K | 0.263
in chloroform, 297.05 K | 0.296
in chloroform, 302 K | 0.338
in chloroform, 307.55 K | 0.391
in chloroform, 313.25 K | 0.449
in chloroform, 318.75 K | 0.511
in chloroform, 323.13 K | 0.557
in ethyl acetate, 287.85 K | 0.231
in ethyl acetate, 292.95 K | 0.281
in ethyl acetate, 297.25 K | 0.311
in ethyl acetate, 302.15 K | 0.357
in ethyl acetate, 306.65 K | 0.403
in ethyl acetate, 311.25 K | 0.452
in ethyl acetate, 316.45 K | 0.516
in ethyl acetate, 321.35 K | 0.573
in ethyl acetate, 325.85 K | 0.643
in ethyl acetate, 330.15 K | 0.711
in methanol, 287.65 K | 0.0115
in methanol, 291.55 K | 0.016
in methanol, 297.15 K | 0.0235
in methanol, 302.4 K | 0.0342
in methanol, 307.25 K | 0.046
in methanol, 311.95 K | 0.0608
in methanol, 316.35 K | 0.0761
in methanol, 321.25 K | 0.0951
in methanol, 327.15 K | 0.121
